Measurements reported in patent publication US20240384350A1, “METHODS OF TREATING CANCER WITH KINASE INHIBITORS” (BOARD OF REGENTS, THE UNIVERSITY OF TEXAS SYSTEM, priority 2021, published 2024).

Assays:
Experiment in all cases: Ba/F3 drug screening, Cell Titer Glo, IC50 Mut/WT
Format in all cases: cell-based
[1] = molecular target: T1, EGFR L833V (Homo sapiens, UniProt P00533, L833V); details: Classical-Like, 72 hours
T1 construct: expressed in transfected cells; host or cells: Ba/F3 cells, retroviral pBabe-Puro vector

[2] = molecular target: T2, EGFR K754E (Homo sapiens, UniProt P00533, K754E); details: Classical-Like, 72 hours
T2 construct: expressed in transfected cells; host or cells: Ba/F3 cells, retroviral pBabe-Puro vector

[3] = molecular target: T3, EGFR S811F (Homo sapiens, UniProt P00533, S811F); details: Classical-Like, 72 hours
T3 construct: expressed in transfected cells; host or cells: Ba/F3 cells, retroviral pBabe-Puro vector (vector made by GeneScript from EGFR WT)

[4] = molecular target: T4, EGFR A763insLQEA (Homo sapiens, UniProt P00533, INS763LQEA); details: Classical-Like, 72 hours
T4 construct: expressed in transfected cells; host or cells: Ba/F3 cells, retroviral pBabe-Puro vector

[5] = molecular target: T5, EGFR D761N (Homo sapiens, UniProt P00533, D761N); details: Classical-Like, 72 hours
T5 construct: expressed in transfected cells; host or cells: Ba/F3 cells, retroviral pBabe-Puro vector
Description: Data represent the ratio of the IC50 value for a given TKI for cells with a classical-like EGFR mutation to the IC50 value for cells with wildtype EGFR.
(§1) Ba/F3 cell generation, drug screening, and IC50 approximations. Ba/F3 cells were obtained as a gift from Dr. Gordon Mills (MD Anderson Cancer Center), and maintained in RPMI (Sigma) containing 10% FBS, 1% penicillin/streptomycin, and 10 ng/ml recombinant mIL-3 (R&D Biosystems). To establish stable Ba/F3 cell lines, Ba/F3 cells were transduced with retroviruses containing mutant EGFR plasmids for 12-24 hours.
After 48-72 hours of transduction, 2 μg/ml puromycin (Invitrogen) was added to Ba/F3 cell lines in complete RPMI. To select for EGFR positive cell lines, cells were stained with PE-EGFR (Biolegend) and sorted by FACS. After sorting, EGFR positive cells were maintained in RPMI containing 10% FBS, 1% penicillin/streptomycin, and 1 ng/ml EGF to support cell viability. […] Shortly, cells were plated in 384-well plates (Greiner Bio-One) at 2000-3000 cells per well in technical triplicate. Seven different concentrations of TKIs or DMSO vehicle were added to reach a final volume of 40 μL per well. After 72 hours, 11 μL of Cell Titer Glo (Promega) was added to each well. Plates were incubated for a minimum of 10 minutes, and bioluminescence was determined using a FLUOstar OPTIMA plate reader (BMG LABTECH). Raw bioluminescence values were normalized to DMSO control treated cells, and values were plotted in GraphPad Prism. […] Drug screens were performed in technical triplicate on each plate and either duplicate or triplicate biological replicates.

[6] = molecular target: T6, EGFR A767insASV (Homo sapiens, UniProt P00533, DUP767-769); details: Ex20, 72 hours
T6 construct: expressed in transfected cells; host or cells: Ba/F3 cells, retroviral pBabe-Puro vector
Description: (§2) Data represent the ratio of the IC50 value for a given TKI for cells with an ex20ins EGFR mutation to the IC50 value for cells with wildtype EGFR.
as §1
(§3) After 48-72 hours of transduction, 2 μg/ml puromycin (Invitrogen) was added to Ba/F3 cell lines in complete RPMI. To select for EGFR positive cell lines, cells were stained with PE-EGFR (Biolegend) and sorted by FACS. After sorting, EGFR positive cells were maintained in RPMI containing 10% FBS, 1% penicillin/streptomycin, and 1 ng/ml EGF to support cell viability. Drug screening was performed as previously described^41,42. Shortly, cells were plated in 384-well plates (Greiner Bio-One) at 2000-3000 cells per well in technical triplicate. Seven different concentrations of TKIs or DMSO vehicle were added to reach a final volume of 40 μL per well. After 72 hours, 11 μL of Cell Titer Glo (Promega) was added to each well. Plates were incubated for a minimum of 10 minutes, and bioluminescence was determined using a FLUOstar OPTIMA plate reader (BMG LABTECH). Raw bioluminescence values were normalized to DMSO control treated cells, and values were plotted in GraphPad Prism. […] Drug screens were performed in technical triplicate on each plate and either duplicate or triplicate biological replicates. […] Statistical differences between groups were determined by ANOVA as described in the figure legends.

[7] = molecular target: T7, EGFR S768dupSVD (Homo sapiens, UniProt P00533, DUP768-770); details: Ex20, 72 hours
T7 construct: expressed in transfected cells; host or cells: Ba/F3 cells, retroviral pBabe-Puro vector

[8] = molecular target: T8, EGFR D770insNPG (Homo sapiens, UniProt P00533, INS770NPG); details: Ex20, 72 hours
T8 construct: expressed in transfected cells; host or cells: Ba/F3 cells, retroviral pBabe-Puro vector
Description: as §2, §1, §3

[9] = molecular target: T9, EGFR H773insNPH (Homo sapiens, UniProt P00533, INS773NPH); details: Ex20, 72 hours
T9 construct: expressed in transfected cells; host or cells: Ba/F3 cells, retroviral pBabe-Puro vector
Description: as §2, §1, §3

[10] = molecular target: T10, EGFR N771dupN (Homo sapiens, UniProt P00533, DUP771-771); details: Ex20, 72 hours
T10 construct: expressed in transfected cells; host or cells: Ba/F3 cells, retroviral pBabe-Puro vector
Description: as §2, §1, §3

[11] = molecular target: T11, EGFR T790M (Homo sapiens, UniProt P00533, T790M); details: T790M-like-3S, 72 hours
T11 construct: expressed in transfected cells; host or cells: Ba/F3
Description: (§4) Data represent the ratio of the IC50 value for a given TKI for cells with a T790M-like-3S EGFR mutation to the IC50 value for cells with wildtype EGFR.
as §1
(§5) After 48-72 hours of transduction, 2 μg/ml puromycin (Invitrogen) was added to Ba/F3 cell lines in complete RPMI. To select for EGFR positive cell lines, cells were stained with PE-EGFR (Biolegend) and sorted by FACS. After sorting, EGFR positive cells were maintained in RPMI containing 10% FBS, 1% penicillin/streptomycin, and 1 ng/ml EGF to support cell viability. Drug screening was performed as previously described^41,42. Shortly, cells were plated in 384-well plates (Greiner Bio-One) at 2000-3000 cells per well in technical triplicate. Seven different concentrations of TKIs or DMSO vehicle were added to reach a final volume of 40 μL per well. After 72 hours, 11 μL of Cell Titer Glo (Promega) was added to each well. Plates were incubated for a minimum of 10 minutes, and bioluminescence was determined using a FLUOstar OPTIMA plate reader (BMG LABTECH). Raw bioluminescence values were normalized to DMSO control treated cells, and values were plotted in GraphPad Prism. […] Drug screens were performed in technical triplicate on each plate and either duplicate or triplicate biological replicates.

[12] = molecular target: T12, EGFR G719S T790M (Homo sapiens, UniProt P00533, G719S/T790M); details: T790M-like-3S, 72 hours
T12 construct: expressed in transfected cells; host or cells: Ba/F3

[13] = molecular target: T13, EGFR S768I/T790M (Homo sapiens, UniProt P00533, S768I/T790M); details: T790M-like-3S, 72 hours
T13 construct: expressed in transfected cells; host or cells: Ba/F3
Description: as §4, §1, §5

[14] = molecular target: T14, EGFR L858R T790M V843I (Homo sapiens, UniProt P00533, L858R/T790M/V843I); details: T790M-like-3S, 72 hours
T14 construct: expressed in transfected cells; host or cells: Ba/F3

[15] = molecular target: T15, EGFR G724S T790M (Homo sapiens, UniProt P00533, G724S/T790M); details: T790M-like-3R, 72 hours
T15 construct: expressed in transfected cells; host or cells: Ba/F3

[16] = molecular target: T16, EGFR Ex19del/T790M/L792H (Homo sapiens, UniProt P00533, DEL746-750/L792H/T790M); details: T790M-like-3R, 72 hours
T16 construct: expressed in transfected cells; host or cells: Ba/F3

[17] = molecular target: T17, EGFR E709A G719S (Homo sapiens, UniProt P00533, E709A/G719S); details: PACC; E709A G719S; Ba/F3; 72 hours
T17 construct: expressed in transfected cells; host or cells: Ba/F3

[18] = molecular target: T18, EGFR E709A (Homo sapiens, UniProt P00533, E709A); details: PACC; E709A; Ba/F3; 72 hours
T18 construct: expressed in transfected cells; host or cells: Ba/F3

[19] = molecular target: T19, EGFR E709K (Homo sapiens, UniProt P00533, E709K); details: PACC; E709K; Ba/F3; 72 hours
T19 construct: expressed in transfected cells; host or cells: Ba/F3
Description: (§6) Data represent the ratio of the IC50 value for a given TKI for cells with a PACC EGFR mutation to the IC50 value for cells with wildtype EGFR.
as §1, §5

[20] = molecular target: T20, EGFR G719A (Homo sapiens, UniProt P00533, G719A); details: PACC; G719A; Ba/F3; 72 hours
T20 construct: expressed in transfected cells; host or cells: Ba/F3

[21] = molecular target: T21, EGFR G724S (Homo sapiens, UniProt P00533, G724S); details: PACC; G724S; Ba/F3; 72 hours
T21 construct: expressed in transfected cells; host or cells: Ba/F3

[22] = molecular target: T22, EGFR L747P (Homo sapiens, UniProt P00533, L747P); details: PACC; L747P; Ba/F3; 72 hours
T22 construct: expressed in transfected cells; host or cells: Ba/F3

[23] = molecular target: T23, EGFR V769L (Homo sapiens, UniProt P00533, V769L); details: PACC; V769L; Ba/F3; 72 hours
T23 construct: expressed in transfected cells; host or cells: Ba/F3

[24] = molecular target: T24, EGFR V774M (Homo sapiens, UniProt P00533, V774M); details: PACC; V774M; Ba/F3; 72 hours
T24 construct: host or cells: Ba/F3

[25] = molecular target: T25, EGFR Ex19del/L792H (Homo sapiens, UniProt P00533, DEL746-750/L792H); details: PACC; Ex19del/L792H; Ba/F3; 72 hours
T25 construct: expressed in transfected cells; host or cells: Ba/F3

[26] = molecular target: T26, EGFR Ex19del L718V (Homo sapiens, UniProt P00533, DEL746-750/L718V); details: PACC; Ex19del L718V; Ba/F3; 72 hours
T26 construct: expressed in transfected cells; host or cells: Ba/F3
Description: as §6, §1, §5

[27] = molecular target: T27, EGFR L858R G724S (Homo sapiens, UniProt P00533, G724S/L858R); details: PACC; L858R G724S; Ba/F3; 72 hours
T27 construct: expressed in transfected cells; host or cells: Ba/F3 (retroviral transduction, pBabe-Puro based vectors)

[28] = molecular target: T28, EGFR Ex19del T854I (Homo sapiens, UniProt P00533, DEL746-750/T854I); details: PACC; Ex19del T854I; Ba/F3; 72 hours
T28 construct: expressed in transfected cells; host or cells: Ba/F3 (retroviral transduction, pBabe-Puro based vectors)

COc1cc2ncnc(Nc3cccc(Cl)c3F)c2cc1OC(=O)N1CCN(C)C[C@H]1C [AZD3759]
ratio of IC50 for cells with mutant EGFR to IC50 for cells with wildtype EGFR (Mut/WT) [1]: 0.1488 | ratio of IC50 for cells with mutant EGFR to IC50 for cells with wildtype EGFR (Mut/WT) [2]: 0.04651 | ratio of IC50 for cells with mutant EGFR to IC50 for cells with wildtype EGFR (Mut/WT) [3]: 0.006423 | ratio of IC50 for cells with mutant EGFR to IC50 for cells with wildtype EGFR (Mut/WT) [4]: 0.02905 | ratio of IC50 for cells with mutant EGFR to IC50 for cells with wildtype EGFR (Mut/WT) [5]: 0.6757 | ratio of IC50 for cells with mutant EGFR to IC50 for cells with wildtype EGFR (Mut/WT) [6]: 4.154 | ratio of IC50 for cells with mutant EGFR to IC50 for cells with wildtype EGFR (Mut/WT) [7]: 3.075 | ratio of IC50 for cells with mutant EGFR to IC50 for cells with wildtype EGFR (Mut/WT) [8]: 3.835 | ratio of IC50 for cells with mutant EGFR to IC50 for cells with wildtype EGFR (Mut/WT) [9]: 1.561 | ratio of IC50 for cells with mutant EGFR to IC50 for cells with wildtype EGFR (Mut/WT) [10]: 1.567 | ratio of IC50 for cells with mutant EGFR to IC50 for cells with wildtype EGFR (Mut/WT) [11]: 21.82 | ratio of IC50 for cells with mutant EGFR to IC50 for cells with wildtype EGFR (Mut/WT) [12]: 8.021 | ratio of IC50 for cells with mutant EGFR to IC50 for cells with wildtype EGFR (Mut/WT) [13]: 7.218 | ratio of IC50 for cells with mutant EGFR to IC50 for cells with wildtype EGFR (Mut/WT) [14]: 9.625 | ratio of IC50 for cells with mutant EGFR to IC50 for cells with wildtype EGFR (Mut/WT) [15]: 7.7 | ratio of IC50 for cells with mutant EGFR to IC50 for cells with wildtype EGFR (Mut/WT) [16]: 9.625 | ratio of IC50 for cells with mutant EGFR to IC50 for cells with wildtype EGFR (Mut/WT) [17]: 0.2131 | ratio of IC50 for cells with mutant EGFR to IC50 for cells with wildtype EGFR (Mut/WT) [18]: 0.1241 | ratio of IC50 for cells with mutant EGFR to IC50 for cells with wildtype EGFR (Mut/WT) [19]: 0.3129 | ratio of IC50 for cells with mutant EGFR to IC50 for cells with wildtype EGFR (Mut/WT) [20]: 0.1002 | ratio of IC50 for cells with mutant EGFR to IC50 for cells with wildtype EGFR (Mut/WT) [21]: 0.01105 | ratio of IC50 for cells with mutant EGFR to IC50 for cells with wildtype EGFR (Mut/WT) [22]: 0.2937 | ratio of IC50 for cells with mutant EGFR to IC50 for cells with wildtype EGFR (Mut/WT) [23]: 0.9765 | ratio of IC50 for cells with mutant EGFR to IC50 for cells with wildtype EGFR (Mut/WT) [24]: 0.3139 | ratio of IC50 for cells with mutant EGFR to IC50 for cells with wildtype EGFR (Mut/WT) [25]: 9.625 | ratio of IC50 for cells with mutant EGFR to IC50 for cells with wildtype EGFR (Mut/WT) [26]: 0.04127 | ratio of IC50 for cells with mutant EGFR to IC50 for cells with wildtype EGFR (Mut/WT) [27]: 0.0005419 | ratio of IC50 for cells with mutant EGFR to IC50 for cells with wildtype EGFR (Mut/WT) [28]: 1.509
